From patent publication US10377753B2, “Substituted 4-azaindoles and their use as GluN2B receptor modulators” (Janssen Pharmaceutica NV, priority 2015, dated 2019)
pIC50: −log10 of the molar value.

Molecular target: cloned human NR1/NR2B ion channels (Homo sapiens (Human), UniProt Q05586+Q13224)
Assay: HNR2BC: effects of test articles on cloned human NR1/NR2B ion channels expressed in mammalian cells (FLIPR calcium flux)
Assay type: cell-based
Conditions: cloned human NR1/NR2B ion channels, Table 5
Outline: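 In a stable Tet-On-induced cell line expressing human GluN1/GluN2B, Calcium 5-loaded cells were preincubated 5 min with compound, then stimulated 5 min with glutamate at ~EC80 plus 10 μM glycine, in pH 7.4 HEPES buffer. FLIPR calcium fluorescence was normalized to control wells.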

Chain of cloned human NR1/NR2B ion channels (Q13224 27-1484, other chains not shown): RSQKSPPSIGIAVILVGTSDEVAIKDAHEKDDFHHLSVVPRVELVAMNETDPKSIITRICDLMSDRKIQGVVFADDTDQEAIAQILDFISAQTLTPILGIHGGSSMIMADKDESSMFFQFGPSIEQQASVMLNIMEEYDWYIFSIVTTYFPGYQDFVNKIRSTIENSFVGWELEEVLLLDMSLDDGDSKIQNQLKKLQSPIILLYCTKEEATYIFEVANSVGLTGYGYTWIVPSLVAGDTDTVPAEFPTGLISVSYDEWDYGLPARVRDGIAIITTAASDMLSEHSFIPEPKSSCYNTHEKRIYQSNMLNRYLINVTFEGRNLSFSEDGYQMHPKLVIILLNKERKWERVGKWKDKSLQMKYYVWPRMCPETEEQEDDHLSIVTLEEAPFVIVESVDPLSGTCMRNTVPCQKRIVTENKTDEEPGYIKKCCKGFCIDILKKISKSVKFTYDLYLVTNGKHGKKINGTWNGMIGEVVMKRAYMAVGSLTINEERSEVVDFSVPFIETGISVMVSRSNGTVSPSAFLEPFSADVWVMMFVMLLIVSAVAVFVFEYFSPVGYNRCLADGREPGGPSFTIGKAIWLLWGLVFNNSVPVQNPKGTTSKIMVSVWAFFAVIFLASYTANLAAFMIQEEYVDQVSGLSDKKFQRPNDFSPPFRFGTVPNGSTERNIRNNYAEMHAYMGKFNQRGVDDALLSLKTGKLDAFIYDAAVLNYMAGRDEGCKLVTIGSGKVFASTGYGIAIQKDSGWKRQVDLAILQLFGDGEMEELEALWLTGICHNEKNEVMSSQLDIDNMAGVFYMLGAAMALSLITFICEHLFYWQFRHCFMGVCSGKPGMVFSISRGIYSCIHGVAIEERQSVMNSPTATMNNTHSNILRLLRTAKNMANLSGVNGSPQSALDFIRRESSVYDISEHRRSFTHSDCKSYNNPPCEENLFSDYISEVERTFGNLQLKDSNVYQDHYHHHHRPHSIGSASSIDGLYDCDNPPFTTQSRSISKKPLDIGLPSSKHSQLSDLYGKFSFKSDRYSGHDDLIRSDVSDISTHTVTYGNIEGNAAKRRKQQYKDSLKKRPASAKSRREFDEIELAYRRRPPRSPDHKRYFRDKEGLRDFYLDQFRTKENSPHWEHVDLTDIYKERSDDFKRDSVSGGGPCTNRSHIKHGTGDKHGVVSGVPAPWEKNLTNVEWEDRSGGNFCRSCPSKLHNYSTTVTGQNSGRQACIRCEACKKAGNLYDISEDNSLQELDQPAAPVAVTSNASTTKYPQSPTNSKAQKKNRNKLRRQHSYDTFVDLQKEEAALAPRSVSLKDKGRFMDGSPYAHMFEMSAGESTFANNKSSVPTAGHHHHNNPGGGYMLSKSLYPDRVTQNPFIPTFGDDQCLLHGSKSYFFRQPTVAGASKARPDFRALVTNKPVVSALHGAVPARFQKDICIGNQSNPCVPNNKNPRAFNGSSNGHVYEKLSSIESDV

| pIC50 | SMILES |
| --- | --- |
| 7.60 | O=C(Cn1ccc2ncc(-c3cccc(Cl)c3F)cc21)N1CCC1 [Example 453, 1-(Azetidin-1-yl)-2-[6-(3-chloro-2-fluoro-phenyl)pyrrolo[3,2-b]pyridin-1-yl]ethanone] |
| 7.60 | Cc1cccc(-c2cnc3ccn(CC(=O)N4CC(F)C4)c3c2)c1F [Example 454, 1-(3-Fluoroazetidin-1-yl)-2-[6-(2-fluoro-3-methyl-phenyl)pyrrolo[3,2-b]pyridin-1-yl]ethanone] |
| 7.50 | O=C(Cn1ccc2ncc(-c3ccc(F)c(F)c3F)cc21)N1CC(F)C1 [Example 455, 1-(3-Fluoroazetidin-1-yl)-2-[6-(2,3,4-trifluorophenyl)pyrrolo[3,2-b]pyridin-1-yl]ethanone] |
| 7.20 | O=C(Cn1ccc2ncc(-c3ccc(F)c(Cl)c3)cc21)N1CCC1 [Example 456, 1-(Azetidin-1-yl)-2-[6-(3-chloro-4-fluoro-phenyl)pyrrolo[3,2-b]pyridin-1-yl]ethanone] |
| 7.80 | O=C(Cn1ccc2ncc(-c3ccccc3F)cc21)N1CC(F)C1 [Example 457, 1-(3-Fluoroazetidin-1-yl)-2-[6-(2-fluorophenyl)pyrrolo[3,2-b]pyridin-1-yl]ethanone] |
| 6.40 | O=C(Cn1ccc2ncc(-c3cccc(C(F)F)c3)cc21)N1CC(F)C1 [Example 458, 2-[6-[3-(Difluoromethyl)phenyl]pyrrolo[3,2-b]pyridin-1-yl]-1-(3-fluoroazetidin-1-yl)ethanone] |
| 7.40 | CCN(C)C(=O)Cn1ccc2ncc(-c3cccc(C)c3)cc21 [Example 459, N-Ethyl-N-methyl-2-[6-(m-tolyl)pyrrolo[3,2-b]pyridin-1-yl]acetamide] |
| 7.20 | Cc1c(F)ccc(-c2cnc3ccn(CC(=O)N4CC(F)C4)c3c2)c1F [Example 460, 2-[6-(2,4-Difluoro-3-methyl-phenyl)pyrrolo[3,2-b]pyridin-1-yl]-1-(3-fluoroazetidin-1-yl)ethanone] |
| 7.50 | CCN(C)C(=O)Cn1ccc2ncc(-c3ccc(F)c(F)c3)cc21 [Example 461, 2-[6-(3,4-Difluorophenyl)pyrrolo[3,2-b]pyridin-1-yl]-N-ethyl-N-methyl-acetamide] |
| 6.90 | CCN(C)C(=O)Cn1ccc2ncc(-c3cc(F)c(F)c(F)c3)cc21 [Example 462, N-Ethyl-N-methyl-2-[6-(3,4,5-trifluorophenyl)pyrrolo[3,2-b]pyridin-1-yl]acetamide] |
| 7.00 | O=C(Cn1ccc2ncc(-c3cccc(Cl)c3)cc21)N1CCC1 [Example 463, 1-(Azetidin-1-yl)-2-[6-(3-chlorophenyl)pyrrolo[3,2-b]pyridin-1-yl]ethanone] |
| 7.90 | CCN(C)C(=O)Cn1ccc2ncc(-c3cccc(C(F)(F)F)c3F)cc21 [Example 464, N-Ethyl-2-[6-[2-fluoro-3-(trifluoromethyl)phenyl]pyrrolo[3,2-b]pyridin-1-yl]-N-methyl-acetamide] |
| 7.10 | O=C(Cn1ccc2ncc(-c3cccc(Cl)c3)cc21)N1CC(F)C1 [Example 465, 2-[6-(3-Chlorophenyl)pyrrolo[3,2-b]pyridin-1-yl]-1-(3-fluoroazetidin-1-yl)ethanone] |

More lines, now with the values behind:

| SMILES | pIC50 |
| --- | --- |
| Cc1csc(-c2cnc3c(Cl)cn(CC(=O)N4CC(F)C4)c3c2)c1 [Example 416, 2-[3-Chloro-6-(4-methyl-2-thienyl)pyrrolo[3,2-b]pyridin-1-yl]-1-(3-fluoroazetidin-1-yl)ethanone] | 5.60 |
| O=C(Cn1cc(Cl)c2ncc(-c3cccs3)cc21)N1CC(F)C1 [Example 417, 2-[3-Chloro-6-(2-thienyl)pyrrolo[3,2-b]pyridin-1-yl]-1-(3-fluoroazetidin-1-yl)ethanone] | 7.20 |
| O=C(Cn1cc(Cl)c2ncc(-c3cc(Cl)cs3)cc21)N1CC(F)C1 [Example 418, 2-[3-Chloro-6-(4-chloro-2-thienyl)pyrrolo[3,2-b]pyridin-1-yl]-1-(3-fluoroazetidin-1-yl)ethanone] | 6.30 |
| CCN(C)C(=O)Cn1ccc2ncc(-c3ccc(F)cc3)cc21 [Example 419, N-Ethyl-2-[6-(4-fluorophenyl)pyrrolo[3,2-b]pyridin-1-yl]-N-methyl-acetamide] | 7.20 |
| CN(C)C(=O)Cn1cc(Cl)c2ncc(-c3cccs3)cc21 [Example 420, 2-[3-Chloro-6-(2-thienyl)pyrrolo[3,2-b]pyridin-1-yl]-N,N-dimethyl-acetamide] | 6.20 |
| CCc1ccc(-c2cnc3c(Cl)cn(CC(=O)N(C)C)c3c2)s1 [Example 421, 2-[3-Chloro-6-(5-ethyl-2-thienyl)pyrrolo[3,2-b]pyridin-1-yl]-N,N-dimethyl-acetamide] | 6.20 |
| O=C(Cn1cc(Cl)c2ncc(-c3cc(Cl)cs3)cc21)N1CCC1 [Example 422, 1-(Azetidin-1-yl)-2-[3-chloro-6-(4-chloro-2-thienyl)pyrrolo[3,2-b]pyridin-1-yl]ethanone] | 6.70 |
| CN(C)C(=O)Cn1cc(Cl)c2ncc(-c3ccc(Cl)s3)cc21 [Example 423, 2-[3-Chloro-6-(5-chloro-2-thienyl)pyrrolo[3,2-b]pyridin-1-yl]-N,N-dimethyl-acetamide] | 7.40 |
| CCc1ccc(-c2cnc3c(Cl)cn(CC(=O)N4CC(F)C4)c3c2)s1 [Example 424, 2-[3-Chloro-6-(5-ethyl-2-thienyl)pyrrolo[3,2-b]pyridin-1-yl]-1-(3-fluoroazetidin-1-yl)ethanone] | 7.50 |
| CN(C)C(=O)Cn1ccc2ncc(-c3cccc(C(F)(F)F)c3F)cc21 [Example 425, 2-[6-[2-Fluoro-3-(trifluoromethyl)phenyl]pyrrolo[3,2-b]pyridin-1-yl]-N,N-dimethyl-acetamide] | 6.50 |
| Cc1cc(-c2cnc3ccn(CC(=O)N(C)C)c3c2)c(C)s1 [Example 427, 2-[6-(2,5-Dimethyl-3-thienyl)pyrrolo[3,2-b]pyridin-1-yl]-N,N-dimethyl-acetamide] | 7.50 |
| Cc1sc(C)c(-c2cnc3ccn(CC(=O)N(C)C)c3c2)c1C [Example 428, N,N-Dimethyl-2-[6-(2,4,5-trimethyl-3-thienyl)pyrrolo[3,2-b]pyridin-1-yl]acetamide] | 7.00 |
| CN(C)C(=O)Cn1ccc2ncc(-c3ccc(F)cc3)cc21 [Example 430, 2-[6-(4-Fluorophenyl)pyrrolo[3,2-b]pyridin-1-yl]-N,N-dimethyl-acetamide] | 7.20 |
| CN(C)C(=O)Cn1ccc2ncc(-c3ccccc3F)cc21 [Example 431, 2-[6-(2-Fluorophenyl)pyrrolo[3,2-b]pyridin-1-yl]-N,N-dimethyl-acetamide] | 6.60 |
| Cc1cccc(-c2cnc3ccn(CC(=O)N(C)C)c3c2)c1F [Example 432, 2-[6-(2-Fluoro-3-methyl-phenyl)pyrrolo[3,2-b]pyridin-1-yl]-N,N-dimethyl-acetamide] | 6.10 |
| CN(C)C(=O)Cn1ccc2ncc(-c3ccccc3)cc21 [Example 433, N,N-Dimethyl-2-(6-phenylpyrrolo[3,2-b]pyridin-1-yl)acetamide] | 7.60 |
| CN(C)C(=O)Cn1ccc2ncc(-c3ccc(F)c(C(F)(F)F)c3)cc21 [Example 436, 2-[6-[4-Fluoro-3-(trifluoromethyl)phenyl]pyrrolo[3,2-b]pyridin-1-yl]-N,N-dimethyl-acetamide] | 7.10 |
| CN(C)C(=O)Cn1ccc2ncc(-c3ccc(F)c(F)c3F)cc21 [Example 437, N,N-Dimethyl-2-[6-(2,3,4-trifluorophenyl)pyrrolo[3,2-b]pyridin-1-yl]acetamide] | 6.50 |
| CN(C)C(=O)Cn1ccc2ncc(-c3csc(Cl)c3)cc21 [Example 439, 2-[6-(5-Chloro-3-thienyl)pyrrolo[3,2-b]pyridin-1-yl]-N,N-dimethyl-acetamide] | 7.30 |
| CN(C)C(=O)Cn1ccc2ncc(-c3cc(Cl)sc3Cl)cc21 [Example 440, 2-[6-(2,5-Dichloro-3-thienyl)pyrrolo[3,2-b]pyridin-1-yl]-N,N-dimethyl-acetamide] | 6.90 |
| Cc1ccc(F)c(-c2cnc3ccn(CC(=O)N(C)C)c3c2)c1F [Example 444, 2-[6-(2,6-Difluoro-3-methyl-phenyl)pyrrolo[3,2-b]pyridin-1-yl]-N,N-dimethyl-acetamide] | 6.20 |
| Cc1ccc(F)c(-c2cnc3ccn(CC(=O)N(C)C)c3c2)c1 [Example 445, 2-[6-(2-Fluoro-5-methyl-phenyl)pyrrolo[3,2-b]pyridin-1-yl]-N,N-dimethyl-acetamide] | 6.40 |
| O=C(Cn1ccc2ncc(-c3cccc(C(F)F)c3)cc21)N1CCC1 [Example 446, 1-(Azetidin-1-yl)-2-[6-[3-(difluoromethyl)phenyl]pyrrolo[3,2-b]pyridin-1-yl]ethanone] | 7.00 |
| Cc1c(F)ccc(-c2cnc3ccn(CC(=O)N(C)C)c3c2)c1F [Example 447, 2-[6-(2,4-Difluoro-3-methyl-phenyl)pyrrolo[3,2-b]pyridin-1-yl]-N,N-dimethyl-acetamide] | 7.70 |
| CN(C)C(=O)Cn1ccc2ncc(-c3cccc(Cl)c3F)cc21 [Example 448, 2-[6-(3-Chloro-2-fluoro-phenyl)pyrrolo[3,2-b]pyridin-1-yl]-N,N-dimethyl-acetamide] | 7.70 |
| CCc1cccc(-c2cnc3ccn(CC(=O)N(C)C)c3c2)c1 [Example 449, 2-[6-(3-Ethylphenyl)pyrrolo[3,2-b]pyridin-1-yl]-N,N-dimethyl-acetamide] | 7.20 |
| CN(C)C(=O)Cn1ccc2ncc(-c3cccc(F)c3)cc21 [Example 450, 2-[6-(3-Fluorophenyl)pyrrolo[3,2-b]pyridin-1-yl]-N,N-dimethyl-acetamide] | 7.40 |
| Cc1cccc(-c2cnc3ccn(CC(=O)N4CCC4)c3c2)c1F [Example 451, 1-(Azetidin-1-yl)-2-[6-(2-fluoro-3-methyl-phenyl)pyrrolo[3,2-b]pyridin-1-yl]ethanone] | 7.30 |
| Cc1c(F)ccc(-c2cnc3ccn(CC(=O)N4CCC4)c3c2)c1F [Example 452, 1-(Azetidin-1-yl)-2-[6-(2,4-difluoro-3-methyl-phenyl)pyrrolo[3,2-b]pyridin-1-yl]ethanone] | 7.60 |
